Reference: ChEMBL document CHEMBL3885881, “DrugMatrix”

Species: Rattus norvegicus
Assay: DrugMatrix - Regimen: Daily Repeat
Format: toxicity, organism-based, Sprague-Dawley
Design: regimen Daily Repeat, gender Male, age 6-8 weeks
Details: in vivo, iv, vehicle 100 % SALINE; for ABSOLUTE BASOPHIL / ABSOLUTE EOSINOPHIL / ABSOLUTE LYMPHOCYTE / ABSOLUTE MONOCYTE / ABSOLUTE SEGMENTED NEUTROPHIL / BASOPHIL / EOSINOPHIL / ERYTHROCYTE COUNT / HEMATOCRIT / HEMOGLOBIN / LEUKOCYTE COUNT / LYMPHOCYTE / MEAN CORPUSCULAR HEMOGLOBIN / MEAN CORPUSCULAR HEMOGLOBIN CONCENTRATION / MEAN CORPUSCULAR VOLUME / MONOCYTE / NEUTROPHIL / NUCLEATED RED BLOOD CELLS / PLATELET COUNT: tissue Blood; for ALANINE AMINOTRANSFERASE / ALBUMIN / ALKALINE PHOSPHATASE / ASPARTATE AMINOTRANSFERASE / BLOOD UREA NITROGEN / CARBON DIOXIDE / CHLORIDE / CHOLESTEROL / CREATINE PHOSPHOKINASE / CREATININE / GLUCOSE / LACTATE DEHYDROGENASE / LIPASE / PHOSPHORUS / POTASSIUM / SODIUM / TOTAL BILIRUBIN / TOTAL PROTEIN / URIC ACID: tissue Plasma
[1] = 7 mg/kg, 120 h, dose level Low, time 5 day
[2] = 41 mg/kg, 72 h, dose level High, time 3 day
[3] = 41 mg/kg, 120 h, dose level High, time 5 day

CC(=O)N[C@@H]1[C@H](Oc2c3cc4cc2Oc2ccc(cc2Cl)[C@@H](O[C@@H]2O[C@@H](CO)[C@@H](O)[C@H](O)[C@@H]2NC(C)=O)[C@@H]2NC(=O)[C@H](NC(=O)[C@@H]4NC(=O)[C@H]4NC(=O)[C@@H](Cc5ccc(c(Cl)c5)O3)NC(=O)[C@H](N)c3ccc(O)c(c3)Oc3cc(O)cc4c3)c3ccc(O)c(c3)-c3c(O[C@H]4O[C@H](CO)[C@@H](O)[C@@H](O)[C@@H]4O)cc(O)cc3[C@@H](C(=O)O)NC2=O)O[C@@H](CO)[C@@H](O)[C@@H]1O
ABSOLUTE BASOPHIL [1]: 0 CELLS/uL
ABSOLUTE EOSINOPHIL [1]: 166 CELLS/uL
ABSOLUTE LYMPHOCYTE [1]: 15568 CELLS/uL
ABSOLUTE MONOCYTE [1]: 230.67 CELLS/uL
ABSOLUTE SEGMENTED NEUTROPHIL [1]: 1568.67 CELLS/uL
BASOPHIL [1]: 0%
EOSINOPHIL [1]: 1%
ERYTHROCYTE COUNT [1]: 5.77 x10E6/uL
HEMATOCRIT [1]: 36.27%
HEMOGLOBIN [1]: 13.63 G/DL
LEUKOCYTE COUNT [1]: 17.53 x10E3/uL
LYMPHOCYTE [1]: 88.67%
MEAN CORPUSCULAR HEMOGLOBIN [1]: 23.67 pg
MEAN CORPUSCULAR HEMOGLOBIN CONCENTRATION [1]: 37.57 G/DL
MEAN CORPUSCULAR VOLUME [1]: 62.97 fL
MONOCYTE [1]: 1.33%
NEUTROPHIL [1]: 9%
NUCLEATED RED BLOOD CELLS [1]: 0 /100WBC
PLATELET COUNT [1]: 1190.67 x10E3/uL
ALANINE AMINOTRANSFERASE [1]: 40.67 u/L
ALBUMIN [1]: 4.23 G/DL
ALKALINE PHOSPHATASE [1]: 395 u/L
ASPARTATE AMINOTRANSFERASE [1]: 84.33 u/L
BLOOD UREA NITROGEN [1]: 19.33 mg/dL
CARBON DIOXIDE [1]: 24 mmol/L
CHLORIDE [1]: 106.67 MEQ/L
CHOLESTEROL [1]: 59.33 mg/dL
CREATINE PHOSPHOKINASE [1]: 389.67 u/L
CREATININE [1]: 0.18 mg/dL
GLUCOSE [1]: 149 mg/dL
LACTATE DEHYDROGENASE [1]: 466.67 u/L
LIPASE [1]: 8.33 u/L
PHOSPHORUS [1]: 11.47 mg/dL
POTASSIUM [1]: 5.99 MEQ/L
SODIUM [1]: 144.47 MEQ/L
TOTAL BILIRUBIN [1]: 0.2 mg/dL
TOTAL PROTEIN [1]: 6.03 G/DL
URIC ACID [1]: 1.17 mg/dL
ABSOLUTE BASOPHIL [2]: 0 CELLS/uL
ABSOLUTE EOSINOPHIL [2]: 126.67 CELLS/uL
ABSOLUTE LYMPHOCYTE [2]: 16661.33 CELLS/uL
ABSOLUTE MONOCYTE [2]: 515.67 CELLS/uL
ABSOLUTE SEGMENTED NEUTROPHIL [2]: 1929.67 CELLS/uL
BASOPHIL [2]: 0%
EOSINOPHIL [2]: 0.67%
ERYTHROCYTE COUNT [2]: 5.53 x10E6/uL
HEMATOCRIT [2]: 35.03%
HEMOGLOBIN [2]: 13.17 G/DL
LEUKOCYTE COUNT [2]: 19.23 x10E3/uL
LYMPHOCYTE [2]: 86.67%
MEAN CORPUSCULAR HEMOGLOBIN [2]: 23.83 pg
MEAN CORPUSCULAR HEMOGLOBIN CONCENTRATION [2]: 37.6 G/DL
MEAN CORPUSCULAR VOLUME [2]: 63.4 fL
MONOCYTE [2]: 2.67%
NEUTROPHIL [2]: 10%
NUCLEATED RED BLOOD CELLS [2]: 0 /100WBC
PLATELET COUNT [2]: 1404 x10E3/uL
ALANINE AMINOTRANSFERASE [2]: 41.67 u/L
ALBUMIN [2]: 4.13 G/DL
ALKALINE PHOSPHATASE [2]: 271.33 u/L
ASPARTATE AMINOTRANSFERASE [2]: 67.33 u/L
BLOOD UREA NITROGEN [2]: 18.33 mg/dL
CARBON DIOXIDE [2]: 27 mmol/L
CHLORIDE [2]: 102 MEQ/L
CHOLESTEROL [2]: 61.67 mg/dL
CREATINE PHOSPHOKINASE [2]: 181 u/L
CREATININE [2]: 0.21 mg/dL
GLUCOSE [2]: 153.67 mg/dL
LACTATE DEHYDROGENASE [2]: 125.67 u/L
LIPASE [2]: 8.33 u/L
PHOSPHORUS [2]: 11.33 mg/dL
POTASSIUM [2]: 6.69 MEQ/L
SODIUM [2]: 143.47 MEQ/L
TOTAL BILIRUBIN [2]: 0.2 mg/dL
TOTAL PROTEIN [2]: 5.87 G/DL
URIC ACID [2]: 1.37 mg/dL
ABSOLUTE BASOPHIL [3]: 0 CELLS/uL
ABSOLUTE EOSINOPHIL [3]: 0 CELLS/uL
ABSOLUTE LYMPHOCYTE [3]: 12482 CELLS/uL
ABSOLUTE MONOCYTE [3]: 440.67 CELLS/uL
ABSOLUTE SEGMENTED NEUTROPHIL [3]: 1610.67 CELLS/uL
BASOPHIL [3]: 0%
EOSINOPHIL [3]: 0%
ERYTHROCYTE COUNT [3]: 5.88 x10E6/uL
HEMATOCRIT [3]: 36.7%
HEMOGLOBIN [3]: 13.8 G/DL
LEUKOCYTE COUNT [3]: 14.53 x10E3/uL
LYMPHOCYTE [3]: 86%
MEAN CORPUSCULAR HEMOGLOBIN [3]: 23.47 pg
MEAN CORPUSCULAR HEMOGLOBIN CONCENTRATION [3]: 37.6 G/DL
MEAN CORPUSCULAR VOLUME [3]: 62.47 fL
MONOCYTE [3]: 3%
NEUTROPHIL [3]: 11%
NUCLEATED RED BLOOD CELLS [3]: 0 /100WBC
PLATELET COUNT [3]: 1300.33 x10E3/uL
ALANINE AMINOTRANSFERASE [3]: 57.67 u/L
ALBUMIN [3]: 4.3 G/DL
ALKALINE PHOSPHATASE [3]: 395 u/L
ASPARTATE AMINOTRANSFERASE [3]: 79.33 u/L
BLOOD UREA NITROGEN [3]: 18.67 mg/dL
CARBON DIOXIDE [3]: 29.67 mmol/L
CHLORIDE [3]: 102.33 MEQ/L
CHOLESTEROL [3]: 69.67 mg/dL
CREATINE PHOSPHOKINASE [3]: 275 u/L
CREATININE [3]: 0.19 mg/dL
GLUCOSE [3]: 177 mg/dL
LACTATE DEHYDROGENASE [3]: 229 u/L
LIPASE [3]: 9 u/L
PHOSPHORUS [3]: 13.2 mg/dL
POTASSIUM [3]: 6.79 MEQ/L
SODIUM [3]: 148.17 MEQ/L
TOTAL BILIRUBIN [3]: 0.17 mg/dL
TOTAL PROTEIN [3]: 6.3 G/DL
URIC ACID [3]: 1.83 mg/dL
